From paper PMC11601441 (bioRxiv, 2024)

How the values were obtained:
Format in all cases: cell-based
mouse GPR17 (mGPR17) = mouse GPR17 (mGPR17) (Mus musculus, UniProt Q6NS65); assay: calcium flux in GLUTag cells expressing mGPR17
[1] = molecular target: human GPR17 long isoform V96M (hGPR17L-V96M) (Homo sapiens, UniProt Q13304, V96M); assay: calcium flux in GLUTag cells expressing hGPR17L-V96M
[2] = molecular target: human GPR17 long isoform (hGPR17L) (Homo sapiens, UniProt Q13304)
human GPR17 long isoform (hGPR17L), sequence (Q13304 whole entry, canonical isoform): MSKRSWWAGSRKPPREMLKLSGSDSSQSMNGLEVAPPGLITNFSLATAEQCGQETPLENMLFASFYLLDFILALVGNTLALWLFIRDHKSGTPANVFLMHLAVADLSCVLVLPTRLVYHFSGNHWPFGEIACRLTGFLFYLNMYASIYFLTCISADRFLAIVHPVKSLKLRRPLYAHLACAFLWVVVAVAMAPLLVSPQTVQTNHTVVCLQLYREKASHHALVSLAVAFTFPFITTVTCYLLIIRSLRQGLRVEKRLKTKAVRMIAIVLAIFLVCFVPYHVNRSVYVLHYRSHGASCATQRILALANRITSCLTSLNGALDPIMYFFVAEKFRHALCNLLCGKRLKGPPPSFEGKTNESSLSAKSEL

human GPR17 long isoform V96M (hGPR17L-V96M), sequence (Q13304 whole entry V96M, canonical isoform): as the sequence (Q13304 whole entry, canonical isoform) above, with V96M counted along it
mouse GPR17 (mGPR17), sequence (Q6NS65 whole entry, canonical isoform): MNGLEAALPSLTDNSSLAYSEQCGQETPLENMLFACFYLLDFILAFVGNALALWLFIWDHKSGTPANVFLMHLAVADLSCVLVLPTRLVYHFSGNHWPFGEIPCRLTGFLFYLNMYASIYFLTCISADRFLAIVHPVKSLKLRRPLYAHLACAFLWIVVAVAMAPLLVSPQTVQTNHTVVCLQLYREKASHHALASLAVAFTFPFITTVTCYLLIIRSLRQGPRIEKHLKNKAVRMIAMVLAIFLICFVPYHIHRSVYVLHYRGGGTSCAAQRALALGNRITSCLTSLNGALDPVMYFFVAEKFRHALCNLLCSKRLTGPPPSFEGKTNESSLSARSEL

An EC50 (mouse GPR17 (mGPR17)) of 0.68 µM, an EC50 [1] of 0.58 µM and an IC50 [2] of 0.029 µM were found for O=C(O)CCc1c(C(=O)O)[nH]c2cc(Cl)cc(Cl)c12 [MDL29,951] in this work.
